Data set [1] concerns the target T1, BRD4(1) (Homo sapiens, UniProt O60885).
T1 construct: made in house
Description: Isothermal titration calorimetry, BRD4(1). The settings on record: for Kd / TΔS / ΔG / N (stoichiometry) / ΔHobs: ITC; for LE (ligand efficiency): LE = ΔG/N, N number of non-hydrogen atoms. Type of data set: binding. As for the experimental part: Experiments were carried out on an ITC200 titration microcalorimeter from MicroCal, LLC (GE Healthcare) equipped with a Washing module, with a cell volume of 0.2003 mL, and a 40 μL microsyringe. Experiments were carried out at 15 °C while stirring at 1000 rpm, in ITC buffer (50 mM HEPES, pH 7.5 (at 25 °C), 150 mM NaCl). The microsyringe was loaded with a solution of the protein sample (300−740 μM protein for BRD9 and BRD4(1), respectively, in ITC buffer) and was carefully inserted into the calorimetric cell which was filled with an amount of the ligand (0.2 mL, 20–25 μM in ITC buffer). The system was first allowed to equilibrate until the cell temperature reached 15 °C, and an additional delay of 60 s was applied. All titrations were conducted using an initial control injection of 0.3 μL followed by 38 identical injections of 1 μL with a duration of 2 s (per injection) and a spacing of 120 s between injections. The titration experiments were designed in such a fashion as to ensure complete saturation of the proteins before the final injection. The heat of dilution for the proteins was independent of their concentration and corresponded to the heat observed from the last injection, following saturation of ligand binding, thus facilitating the estimation of the baseline of each titration from the last injection. The collected data were corrected for protein heats of dilution (measured on separate experiments by titrating the proteins into ITC buffer) and deconvoluted using the MicroCal Origin software supplied with the instrument to yield enthalpies of binding (ΔH) and binding constants (KB) in the same fashion as that previously described in detail by Wiseman and co-workers.[66] Thermodynamic parameters were calculated using the basic equation of thermodynamics (ΔG = ΔH – TΔS = −RT ln KB, where ΔG, ΔH, and ΔS are the changes in free energy, enthalpy, and entropy of binding, respectively). In all cases a single binding site model was employed, supplied with the MicroCal Origin software package.
A general note: ITC needs no label: the signal is the heat of the interaction.

For data set [2], the target named is T2, BRD9 (Homo sapiens, UniProt Q9H8M2).
T2 construct: made in house
T2 sequence (Q9H8M2 136-240 limits assumed): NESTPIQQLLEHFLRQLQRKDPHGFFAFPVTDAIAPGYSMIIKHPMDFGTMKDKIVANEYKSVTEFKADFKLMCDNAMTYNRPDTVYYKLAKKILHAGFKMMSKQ
Kind of data set: Isothermal titration calorimetry, BRD9. Type of data set: binding. The settings on record: for Kd: 50 mM HEPES pH 7.5, 150 mM NaCl, triplicate, read-out: KD; for Kd / N (stoichiometry) / ΔHobs: reverse titration; for LE (ligand efficiency): LE = ΔG/N, N number of non-hydrogen atoms.

Data set [3] addresses T2, BRD9. Description: Protein stability (thermal) shift assay, BRD9. The data set is classed as binding.
The target in data set [4] is T1, BRD4(1). Description: Protein stability (thermal) shift assay, BRD4(1). The data set is classed as binding.
The target of another data set is T3, BRD2(1) (Homo sapiens, UniProt P25440).
T3 construct: Fragments were tested in a thermal shift assay against bromodomains of the BET subfamily; made in house
Kind of data set: Protein stability (thermal) shift assay, BRD2(1). The data set is classed as binding. The settings on record: compound 10 μM, protein 2 μM; average of triplicate.

The target in a further data set is T4, PCAF (Homo sapiens, UniProt Q92831).
T4 construct: representative BRDs from other structural subfamilies (family I, PCAF); made in house
T4 sequence (Q92831 723-827 limits assumed): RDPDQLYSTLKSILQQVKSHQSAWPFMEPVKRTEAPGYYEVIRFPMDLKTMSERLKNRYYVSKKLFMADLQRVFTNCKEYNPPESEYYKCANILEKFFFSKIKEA
Kind of data set: Protein stability (thermal) shift assay, PCAF. Type of data set: binding. The settings on record: compound 10 μM, protein 2 μM; average of triplicate.

Another data set deals with T5, CREBBP (Homo sapiens, UniProt Q92793).
T5 construct: small thermal shits (1.0–1.3 °C) for the bromodomain of CREBBP; made in house
Kind of data set: Protein stability (thermal) shift assay, CREBBP. The data set is classed as binding. The settings on record: compound 10 μM, protein 2 μM; average of triplicate; read-out: ΔTm Shift, CREBBP.

The next data set concerns the target T6, BRD3(1) (Homo sapiens, UniProt Q15059).
T6 construct: Fragments were tested in a thermal shift assay against bromodomains of the BET subfamily; made in house
Description: Protein stability (thermal) shift assay, BRD3(1). The settings on record: compound 10 μM, protein 2 μM; average of triplicate. Type of data set: binding.

A further data set concerns the target T7, BRD3(2) (Homo sapiens, UniProt Q15059).
T7 construct: made in house
Kind of data set: Protein stability (thermal) shift assay, BRD3(2). Type of data set: binding. The settings on record: compound 10 μM, protein 2 μM; average of triplicate.

Another data set addresses T8, BAZ2B (Homo sapiens, UniProt Q9UIF8).
T8 construct: representative BRDs from other structural subfamilies (family I, PCAF); family III, CREBBP; family IV, BRD9; family V, BAZ2B; made in house
T8 sequence (Q9UIF8 2060-2164 limits assumed): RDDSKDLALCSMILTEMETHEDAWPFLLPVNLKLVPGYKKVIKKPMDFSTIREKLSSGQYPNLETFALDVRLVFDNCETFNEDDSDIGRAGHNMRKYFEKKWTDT
Kind of data set: Protein stability (thermal) shift assay, BAZ2B. The data set is classed as binding. The settings on record: compound 10 μM, protein 2 μM; average of triplicate; read-out: ΔTm Shift, BAZ2BA.

The subject of the next data set is HEK293 cells. Description: In vitro cytotoxicity (CellTiter-Glo). Type of data set: cell-based, human. The settings on record: cell viability, 0.005-33 μM. As for the experimental part: Following NanoBRET substrate addition and NanoBRET measurements, to the same wells an equal volume of CellTiter-Glo reagent (Promega) was added and the plates were incubated for 30 min at room temperature. Total luminescence was measured, and relative compound toxicity was determined by comparing the RLUs (relative light units) of a sample containing DMSO vehicle (in the absence of compound 11) to the RLUs of the samples containing 0.005–33 μM compound 11.

The mark [5] stands for this setting: 50 mM HEPES pH 7.5, 150 mM NaCl, 15 °C, reverse titration, triplicate, read-out: KD.
The mark [6] stands for this setting: read-out: dissociation constant.
Setting [7] is: thermal shift, 10 μM compound, 2 μM protein, read-out: ΔTm.

“And” between values parts separate entries of the source, which are not always exact repeats. Equal values may be shown once. “Also recorded” adds a separate entry of the source. Read-outs that look alike come from different tables or passages of the source.

T3 sequence (P25440 74-180 limits assumed): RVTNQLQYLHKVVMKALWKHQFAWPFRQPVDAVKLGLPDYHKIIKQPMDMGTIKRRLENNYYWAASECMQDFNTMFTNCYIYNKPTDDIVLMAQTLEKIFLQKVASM
T5 sequence (Q92793 1085-1192 limits assumed): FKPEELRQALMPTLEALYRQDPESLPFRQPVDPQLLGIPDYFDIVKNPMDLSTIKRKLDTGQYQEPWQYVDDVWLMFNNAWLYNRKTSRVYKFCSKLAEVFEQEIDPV
T7 sequence (Q15059 306-415 limits assumed): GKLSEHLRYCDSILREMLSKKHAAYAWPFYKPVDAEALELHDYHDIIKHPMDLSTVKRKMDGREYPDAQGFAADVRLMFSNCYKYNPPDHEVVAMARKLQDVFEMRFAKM
T6 sequence (Q15059 34-140 limits assumed): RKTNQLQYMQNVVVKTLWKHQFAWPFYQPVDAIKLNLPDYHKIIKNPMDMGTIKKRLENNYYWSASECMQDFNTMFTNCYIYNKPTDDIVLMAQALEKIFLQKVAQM

Take `COc1ccc(Br)cc1-c1nc(N)nc2[nH]cnc12` [Compound 7d, 2-Amino-6-(5-bromo-2-methoxyphenyl)-9H-purine]: the Kd on BRD4(1) [1] (setting [5]) is 4.65 ± 0.197 µM; at BRD4(1) [1] (setting [6]) it was 4.7 µM and 4.65 µM; at BRD9 [2] (ITC, 15 °C), 397 ± 19 nM. Moreover, the TΔS on BRD4(1) [1] (15 °C) was found to be 0.94 kcal/mol. Moreover, the ΔG result is “–7.03 kcal/mol” at BRD4(1) [1] (15 °C) and “–8.45 kcal/mol” on BRD9 [2] (ITC, 15 °C). Besides, the “N (stoichiometry)” value on BRD4(1) [1] (15 °C, reverse titration) was determined as 0.99 ± 0.018; on BRD9 [2] (ITC, 15 °C), 0.97 ± 0.005. Moreover, the ΔHobs result at BRD4(1) [1] (15 °C, reverse titration) is recorded as “–6.09 ± 0.14 kcal/mol”; on BRD9 [2] (ITC, 15 °C), “–9.63 ± 0.06 kcal/mol”. Also, the entries for the “LE (ligand efficiency)” value on BRD4(1) [1] and on BRD9 [2] were 0.37 and 0.44, respectively. Also, the ΔTm at 10 µM at BRD9 [3] (compound 10 μM, protein 2 μM, average of triplicate, read-out: ΔTm Shift, BRD9) was 3.6 °C; at BRD4(1) [4] (setting [7]), 3.2 °C; on BRD2(1) it was 2.5 °C; on PCAF it was -0.45 °C; on CREBBP, 2.9 °C; on BRD3(1) it was 2.1 °C. Also, the ΔTm at 10 µM was found to be 0.7 °C at BRD3(2) and 0.237 °C on BAZ2B. For the same compound, in the data set on HEK293 cells, the “cytotoxicity toward HEK293 cells (in words)” value is reported as “not cytotoxic”.

On to `Nc1nc(-c2cc(Br)cc3c2OCC3)c2nc[nH]c2n1` [Compound 11, 2-Amino-6-(5-bromo-2,3-dihydrobenzo[b]furan-7-yl)-9H-purine], for which the Kd on BRD4(1) [1] (setting [5]) was 1.37 ± 0.029 µM; on BRD4(1) [1] (setting [6]) it was 1.4 µM and 1.37 µM; at BRD9 [2] (ITC, 15 °C), 278 ± 15 nM. In addition, the TΔS at BRD4(1) [1] (15 °C) is 1.34 kcal/mol; on BRD9 [2] (ITC, 15 °C), “–1.63 kcal/mol”. Moreover, the ΔG entry at BRD4(1) [1] (15 °C) is “–7.73 kcal/mol”; on BRD9 [2] (ITC, 15 °C) it was “–8.65 kcal/mol”. In addition, the “N (stoichiometry)” value at BRD4(1) [1] (15 °C, reverse titration) was determined as 1.09 ± 0.002; on BRD9 [2] (ITC, 15 °C), 1.03 ± 0.003. For the same compound, the ΔHobs entry was “–6.39 ± 0.02 kcal/mol” on BRD4(1) [1] (15 °C, reverse titration) and “–10.28 ± 0.04 kcal/mol” at BRD9 [2] (ITC, 15 °C). In addition, the “LE (ligand efficiency)” value on BRD4(1) [1] worked out at 0.39; at BRD9 [2], 0.43. Also, the ΔTm at 10 µM amounted to 6.5 °C at BRD9 [3] (setting [7]); 5.3 °C on BRD4(1) [4] (compound 10 μM, protein 2 μM, average of triplicate, read-out: ΔTm Shift, BRD4(1)); 2.8 °C on BRD2(1); 0.9 °C at PCAF; 3.6 °C at CREBBP; 3.7 °C on BRD3(1). Besides, the ΔTm at 10 µM at BRD3(2) stood at 5.4 °C; on BAZ2B, 0.37 °C. Also, in the data set with HEK293 cells, the “cytotoxicity toward HEK293 cells (in words)” value was “did not observe any cytotoxicty; also recorded: not cytotoxic; also recorded: not toxic”.

For the origin of these results see publication PMC4403932 (Journal of Medicinal Chemistry, 2015).
